Where “and” joins values, the source holds several entries; their conditions need not be identical. Equal values may be shown once. Calls of active or inactive are those of the source. Unless noted, the rule behind the calls is not given here.
Columns and labels:
[1] = target: Latent membrane protein 1 (Human herpesvirus 4 (strain B95-8), UniProt P03230); assay: TES1-eGFP NF-kB reporter inhibition versus Tet-On dsRED, dose response, selectivity assay for LMP1 NF-kB inhibitor project, imaging, HEK293T, dual-color eGFP/dsRED, cherry-picks (AID 588398); type: functional, cell-based
Latent membrane protein 1, sequence (P03230 whole entry, the tested form may be a part): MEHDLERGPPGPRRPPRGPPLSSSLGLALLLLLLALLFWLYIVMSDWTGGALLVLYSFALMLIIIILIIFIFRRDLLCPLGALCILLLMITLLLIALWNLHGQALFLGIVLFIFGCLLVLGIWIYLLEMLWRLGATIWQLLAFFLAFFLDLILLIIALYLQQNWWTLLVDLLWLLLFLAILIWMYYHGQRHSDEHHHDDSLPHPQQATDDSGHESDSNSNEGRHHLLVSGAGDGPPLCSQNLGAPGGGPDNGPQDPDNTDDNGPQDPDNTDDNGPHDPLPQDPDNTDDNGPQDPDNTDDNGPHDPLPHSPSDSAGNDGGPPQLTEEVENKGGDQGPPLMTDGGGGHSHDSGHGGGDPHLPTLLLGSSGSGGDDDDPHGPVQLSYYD

[2] = target: T1, Oxysterols receptor LXR-beta (Homo sapiens, UniProt P55055); type: functional, cell-based;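 also: agonist activity at LXR measured by a cell-based luminescence readout across a dose range, run as a counterscreen for daf-12 agonists; HEK293 cells with Gal4-LXR fusion and GAL4-driven luciferase reporter; potency for activation of Gal4-LXR reporter so compounds are agonists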
T1 sequence (P55055 whole entry): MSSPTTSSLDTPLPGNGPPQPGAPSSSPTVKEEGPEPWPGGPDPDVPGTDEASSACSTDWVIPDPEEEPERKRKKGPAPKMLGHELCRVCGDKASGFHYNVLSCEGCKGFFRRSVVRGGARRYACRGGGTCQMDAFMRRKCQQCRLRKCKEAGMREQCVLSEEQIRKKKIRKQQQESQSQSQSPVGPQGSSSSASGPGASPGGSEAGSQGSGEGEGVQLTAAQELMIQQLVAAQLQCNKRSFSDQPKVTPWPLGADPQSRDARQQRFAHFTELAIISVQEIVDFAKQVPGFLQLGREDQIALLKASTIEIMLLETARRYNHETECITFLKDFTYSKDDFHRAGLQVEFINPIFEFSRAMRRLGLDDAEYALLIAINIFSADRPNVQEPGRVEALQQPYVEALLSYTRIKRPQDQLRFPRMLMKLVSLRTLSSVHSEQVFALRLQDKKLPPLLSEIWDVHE

[3] = test system: HEK293; assay: inhibitors of LMP1-driven NF-kB reporter, dose response, cell-based, HEK293, luciferase, cherry-pick (AID 588343); type: functional; conditions: Homo sapiens
[4] = target: T2, Beta Lactamase (Pseudomonas aeruginosa, UniProt Q932Y6);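 also: confirmatory high-throughput screen measuring VIM-2 metallo-beta-lactamase inhibition by epi-absorbance in dose response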
T2 sequence (Q932Y6 whole entry): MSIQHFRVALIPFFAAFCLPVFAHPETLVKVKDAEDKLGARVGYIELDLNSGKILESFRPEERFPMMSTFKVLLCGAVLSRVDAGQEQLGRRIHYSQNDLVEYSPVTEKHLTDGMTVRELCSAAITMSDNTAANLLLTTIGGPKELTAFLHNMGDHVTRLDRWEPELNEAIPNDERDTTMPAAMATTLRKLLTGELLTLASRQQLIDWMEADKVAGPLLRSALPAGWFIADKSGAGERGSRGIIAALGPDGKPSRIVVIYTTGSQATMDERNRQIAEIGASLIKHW

[5] = target: Beta-lactamase (Salmonella choleraesuis (strain SC-B67), UniProt Q5J463)
Beta-lactamase (Salmonella choleraesuis (strain SC-B67), UniProt Q5J463), sequence (Q5J463 whole entry): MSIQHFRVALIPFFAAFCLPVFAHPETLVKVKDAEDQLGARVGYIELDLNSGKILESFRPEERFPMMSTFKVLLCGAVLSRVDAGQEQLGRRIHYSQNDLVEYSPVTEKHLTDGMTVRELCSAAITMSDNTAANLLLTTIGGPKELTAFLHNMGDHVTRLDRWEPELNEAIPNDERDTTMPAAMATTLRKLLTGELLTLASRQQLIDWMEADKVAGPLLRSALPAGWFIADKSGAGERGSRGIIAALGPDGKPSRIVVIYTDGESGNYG

[6] = target: T2, Beta Lactamase; assay: beta-lactamase reporter inhibitor potency, dose response, artefact control for TLR9-MyD88 binding inhibitor project, BLA reporter cells, FRET fluorescence (AID 588341); type: cell-based;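 also: cell based assay in CHO-K1 cells stably expressing beta-lactamase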
[7] = test system: CHO; assay: cytotoxicity in TLR9-MyD88 CHO cells, dose response, cytotoxicity control for TLR9-MyD88 binding inhibitor project, cell-based, luminescence (AID 588339); type: functional, hamster; conditions: Cricetulus griseus;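 also: CHO cells stably coexpressing TLR9 and MyD88 fusions from primary screen; compound exposure lasted 48 hours before viability readout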
[8] = target: Beta-lactamase (Pseudomonas aeruginosa, UniProt Q79MP6);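 also: biochemical dose-response test of metallo-beta-lactamase enzyme inhibition, read out by epi-absorbance; purified recombinant IMP-1 metallo-beta-lactamase with nitrocefin as substrate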
Beta-lactamase (Pseudomonas aeruginosa, UniProt Q79MP6), sequence (Q79MP6 whole entry): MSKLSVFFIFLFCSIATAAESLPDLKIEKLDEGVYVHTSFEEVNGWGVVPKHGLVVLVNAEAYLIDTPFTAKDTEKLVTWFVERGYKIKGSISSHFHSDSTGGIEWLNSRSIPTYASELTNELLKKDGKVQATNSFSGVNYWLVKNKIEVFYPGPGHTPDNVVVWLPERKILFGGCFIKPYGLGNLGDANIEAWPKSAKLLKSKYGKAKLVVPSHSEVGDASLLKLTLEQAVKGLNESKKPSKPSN

[9] = KCNQ1/KCNE1 channel current potentiation, dose response, selectivity assay for KCNQ2 activator project, automated patch clamp, CHO cells (AID 493042); type: functional
[10] = target: Potassium voltage-gated channel subfamily KQT member 2/member 3 (Rattus norvegicus, UniProt O88943+O88944); assay: Mode of action assay-Dose response assay for KCNQ2 activators in the KCNQ2/KCNQ3 co-expressing cells on automated patch clamp. [Related pubchem assays (depositor defined):AID2239, AID2258, AID2287]; type: functional
Potassium voltage-gated channel subfamily KQT member 2/member 3, sequence (O88943 whole entry): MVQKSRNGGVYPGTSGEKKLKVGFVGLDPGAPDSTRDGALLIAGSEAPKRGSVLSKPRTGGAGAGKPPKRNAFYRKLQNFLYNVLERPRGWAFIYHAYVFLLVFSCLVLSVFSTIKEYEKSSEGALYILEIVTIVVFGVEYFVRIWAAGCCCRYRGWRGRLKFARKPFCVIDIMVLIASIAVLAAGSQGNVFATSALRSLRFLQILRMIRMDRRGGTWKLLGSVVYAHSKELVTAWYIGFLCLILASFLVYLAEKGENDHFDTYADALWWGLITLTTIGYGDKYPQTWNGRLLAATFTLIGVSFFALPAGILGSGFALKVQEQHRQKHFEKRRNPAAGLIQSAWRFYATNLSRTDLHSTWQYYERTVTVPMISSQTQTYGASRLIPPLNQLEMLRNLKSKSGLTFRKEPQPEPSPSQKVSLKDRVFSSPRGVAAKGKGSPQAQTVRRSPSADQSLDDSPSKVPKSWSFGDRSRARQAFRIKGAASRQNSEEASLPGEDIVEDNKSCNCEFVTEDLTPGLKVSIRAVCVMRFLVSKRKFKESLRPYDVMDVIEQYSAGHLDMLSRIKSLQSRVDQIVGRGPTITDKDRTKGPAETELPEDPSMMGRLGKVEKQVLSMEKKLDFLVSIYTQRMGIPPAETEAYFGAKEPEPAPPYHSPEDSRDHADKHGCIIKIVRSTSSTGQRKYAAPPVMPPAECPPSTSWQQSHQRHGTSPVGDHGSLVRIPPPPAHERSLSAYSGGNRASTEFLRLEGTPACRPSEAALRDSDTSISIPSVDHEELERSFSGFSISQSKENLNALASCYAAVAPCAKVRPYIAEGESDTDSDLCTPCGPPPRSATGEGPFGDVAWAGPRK
Potassium voltage-gated channel subfamily KQT member 2/member 3, sequence (O88944 whole entry): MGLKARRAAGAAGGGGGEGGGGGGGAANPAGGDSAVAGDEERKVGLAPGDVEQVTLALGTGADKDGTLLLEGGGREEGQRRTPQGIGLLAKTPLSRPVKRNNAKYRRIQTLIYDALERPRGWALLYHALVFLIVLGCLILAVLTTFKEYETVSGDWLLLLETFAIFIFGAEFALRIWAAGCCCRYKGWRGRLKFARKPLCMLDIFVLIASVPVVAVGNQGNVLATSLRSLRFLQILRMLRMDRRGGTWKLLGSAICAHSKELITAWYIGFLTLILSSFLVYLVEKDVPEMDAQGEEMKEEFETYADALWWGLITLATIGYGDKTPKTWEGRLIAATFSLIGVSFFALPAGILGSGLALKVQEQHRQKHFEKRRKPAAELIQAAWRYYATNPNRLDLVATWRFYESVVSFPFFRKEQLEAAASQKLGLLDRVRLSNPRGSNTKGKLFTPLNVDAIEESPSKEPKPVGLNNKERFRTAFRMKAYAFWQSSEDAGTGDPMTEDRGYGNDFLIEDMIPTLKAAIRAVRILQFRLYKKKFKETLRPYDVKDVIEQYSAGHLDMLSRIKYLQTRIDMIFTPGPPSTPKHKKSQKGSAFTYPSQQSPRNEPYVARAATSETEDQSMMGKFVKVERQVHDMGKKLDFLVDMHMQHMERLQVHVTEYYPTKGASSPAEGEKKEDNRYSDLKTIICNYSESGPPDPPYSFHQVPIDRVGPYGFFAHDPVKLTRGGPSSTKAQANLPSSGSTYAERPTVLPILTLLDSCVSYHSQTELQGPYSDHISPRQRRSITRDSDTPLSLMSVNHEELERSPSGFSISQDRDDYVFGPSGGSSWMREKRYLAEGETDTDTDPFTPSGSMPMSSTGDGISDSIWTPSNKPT

[11] = target: Potassium voltage-gated channel subfamily KQT member 2 (Rattus norvegicus, UniProt O88943); assay: Mode of action assay-Dose response assay for compounds that activate KCNQ2 potassium channels on automated patch clamp. [Related pubchem assays (depositor defined):AID2239, AID2258, AID2287, AID493113]; type: functional
Potassium voltage-gated channel subfamily KQT member 2, sequence (O88943 whole entry): as the sequence (O88943 whole entry) above

[12] = target: T3, Sentrin-specific protease 7 (Homo sapiens, UniProt Q9BQF6); assay: SENP7 protease inhibitors, SAR follow-up, biochemical, luminescence (AID 504497); type: functional
T3 sequence (Q9BQF6 whole entry): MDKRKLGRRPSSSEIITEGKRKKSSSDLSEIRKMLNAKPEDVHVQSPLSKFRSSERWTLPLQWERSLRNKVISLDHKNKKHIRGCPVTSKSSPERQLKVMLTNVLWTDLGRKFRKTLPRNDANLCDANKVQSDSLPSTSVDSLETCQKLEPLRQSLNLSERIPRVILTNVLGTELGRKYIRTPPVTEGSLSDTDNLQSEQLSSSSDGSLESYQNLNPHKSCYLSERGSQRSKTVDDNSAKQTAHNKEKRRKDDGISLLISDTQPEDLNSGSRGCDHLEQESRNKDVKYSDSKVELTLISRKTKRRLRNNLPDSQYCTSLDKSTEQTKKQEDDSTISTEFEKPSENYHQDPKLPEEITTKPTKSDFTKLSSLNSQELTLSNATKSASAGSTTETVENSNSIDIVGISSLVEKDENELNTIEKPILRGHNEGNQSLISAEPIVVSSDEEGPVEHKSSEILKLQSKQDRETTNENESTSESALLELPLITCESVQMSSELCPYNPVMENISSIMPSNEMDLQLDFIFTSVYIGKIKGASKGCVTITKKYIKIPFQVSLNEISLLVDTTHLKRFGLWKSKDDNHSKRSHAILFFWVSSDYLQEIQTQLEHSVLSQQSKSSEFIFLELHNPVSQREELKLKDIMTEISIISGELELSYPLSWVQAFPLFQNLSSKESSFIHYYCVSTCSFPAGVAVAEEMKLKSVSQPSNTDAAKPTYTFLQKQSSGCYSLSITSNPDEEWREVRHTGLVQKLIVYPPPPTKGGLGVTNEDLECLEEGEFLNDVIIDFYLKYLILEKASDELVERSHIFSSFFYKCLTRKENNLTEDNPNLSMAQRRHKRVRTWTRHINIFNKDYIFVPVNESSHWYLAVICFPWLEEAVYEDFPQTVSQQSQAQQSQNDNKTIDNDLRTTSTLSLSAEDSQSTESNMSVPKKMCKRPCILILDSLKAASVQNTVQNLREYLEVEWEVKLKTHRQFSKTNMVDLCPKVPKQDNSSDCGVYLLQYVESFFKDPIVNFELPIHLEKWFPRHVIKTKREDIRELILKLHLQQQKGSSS

[13] = target: T4, Sentrin-specific protease 6 (Homo sapiens, UniProt Q9GZR1); assay: SAR Analysis of small molecule inhibitors of Sentrin-specific protease 6 (SENP6) using a Luminescent assay. [Related pubchem assays (depositor defined):AID2582, AID2599]; type: functional
T4 sequence (Q9GZR1 whole entry): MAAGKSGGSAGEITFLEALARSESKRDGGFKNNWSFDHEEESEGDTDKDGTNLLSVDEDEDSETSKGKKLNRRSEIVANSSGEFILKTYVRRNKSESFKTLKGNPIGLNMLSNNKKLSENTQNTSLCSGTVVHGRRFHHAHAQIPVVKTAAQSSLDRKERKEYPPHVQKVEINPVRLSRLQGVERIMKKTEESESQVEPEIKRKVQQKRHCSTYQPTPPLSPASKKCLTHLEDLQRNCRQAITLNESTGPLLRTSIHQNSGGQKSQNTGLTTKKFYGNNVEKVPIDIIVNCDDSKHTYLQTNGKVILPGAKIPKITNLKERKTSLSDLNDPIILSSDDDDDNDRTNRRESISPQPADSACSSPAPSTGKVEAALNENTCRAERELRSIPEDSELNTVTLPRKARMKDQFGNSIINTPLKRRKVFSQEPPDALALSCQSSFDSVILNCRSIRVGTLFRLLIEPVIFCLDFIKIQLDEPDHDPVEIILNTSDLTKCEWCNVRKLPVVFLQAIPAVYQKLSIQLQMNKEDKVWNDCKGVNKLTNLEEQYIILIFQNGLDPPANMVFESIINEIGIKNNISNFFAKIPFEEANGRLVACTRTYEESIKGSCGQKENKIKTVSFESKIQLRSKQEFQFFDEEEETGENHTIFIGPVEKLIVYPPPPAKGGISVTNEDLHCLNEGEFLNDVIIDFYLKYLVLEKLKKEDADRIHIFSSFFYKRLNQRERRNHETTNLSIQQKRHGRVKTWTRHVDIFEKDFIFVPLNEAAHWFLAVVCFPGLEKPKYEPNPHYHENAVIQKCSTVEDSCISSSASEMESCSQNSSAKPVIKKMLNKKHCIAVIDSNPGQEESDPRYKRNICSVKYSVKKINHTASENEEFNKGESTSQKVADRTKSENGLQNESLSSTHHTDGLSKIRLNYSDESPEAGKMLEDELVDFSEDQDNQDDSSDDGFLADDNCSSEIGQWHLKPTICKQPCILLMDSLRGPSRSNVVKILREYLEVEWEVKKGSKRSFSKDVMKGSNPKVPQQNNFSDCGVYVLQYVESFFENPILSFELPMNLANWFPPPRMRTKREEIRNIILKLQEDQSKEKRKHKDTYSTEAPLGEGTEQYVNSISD

[14] = target: T5, Caspase-3 (Homo sapiens, UniProt P42574); assay: SAR Analysis of small molecule inhibitors of Sentrin-specific proteases (SENPs) using a Caspase-3 Selectivity assay. [Related pubchem assays (depositor defined):AID2540, AID2599, AID434973, AID489001]; type: functional
T5 sequence (P42574 whole entry): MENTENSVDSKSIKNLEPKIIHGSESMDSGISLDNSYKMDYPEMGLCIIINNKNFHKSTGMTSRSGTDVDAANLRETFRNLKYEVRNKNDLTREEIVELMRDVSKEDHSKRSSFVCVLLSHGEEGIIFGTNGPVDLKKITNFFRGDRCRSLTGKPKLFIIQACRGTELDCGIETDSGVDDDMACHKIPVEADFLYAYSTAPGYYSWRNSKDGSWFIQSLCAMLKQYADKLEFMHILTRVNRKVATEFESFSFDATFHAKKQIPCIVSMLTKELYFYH

[15] = target: T6, Sentrin-specific protease 8 (Homo sapiens, UniProt Q96LD8); assay: SENP8 protease inhibitors, SAR follow-up, biochemical, luminescence (AID 504501); type: functional
T6 sequence (Q96LD8 whole entry): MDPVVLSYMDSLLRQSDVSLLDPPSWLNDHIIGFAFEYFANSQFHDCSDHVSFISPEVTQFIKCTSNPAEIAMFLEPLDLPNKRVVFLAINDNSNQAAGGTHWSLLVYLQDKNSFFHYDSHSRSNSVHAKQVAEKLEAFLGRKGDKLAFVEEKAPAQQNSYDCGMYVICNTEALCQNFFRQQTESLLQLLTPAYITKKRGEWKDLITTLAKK

In the case of `CCc1sc(C(=O)Nc2ncccc2O)cc1C`, the AC50 [1] is reported as 29.7 µM (active), the EC50 [2] is reported as > 67.5 µM (inactive) and the AC50 [3] is reported as 3.71 µM (active).
In the case of `O=C(O)c1ccccc1-c1ccc(/C=C/c2cc(C(F)(F)F)nc(O)n2)o1`, the IC50 [4] is reported as 25 µM (inactive), the IC50 [5] is reported as 6.74 µM (active) and the IC50 [6] is reported as 7 µM (active). For the same compound, the IC50 [7] was > 49.8 µM (inactive) and the IC50 [8] was 30.2 µM (inactive).
In the case of `Cc1cc(C)c(NC(=O)C2CC3CCC2C3)c(C)c1` (stereo not given), the EC50 [9] is reported as 31.9 µM (active), the EC50 [10] is reported as 0.366 µM (active) and the EC50 [11] is reported as 410 nM (active) and 369 nM (active) and 230 nM (active).
With `O=C(Nc1nc2ccc(Cl)cc2s1)c1ccsc1` the IC50 [12] was 1.1 µM (active), the IC50 [13] was 0.83 µM (active) and the IC50 [14] was 2.3 µM (active). The IC50 [15] was 0.83 µM (active).

Reference: ChEMBL document CHEMBL1201862, “PubChem BioAssay data set” (2004)
